Here are results for 2 molecules from PMC9405596, “Evaluation of the Anti-Leishmania mexicana and -Trypanosoma brucei Activity and Mode of Action of 4,4′-(Arylmethylene)bis(3-methyl-1-phenyl-1H-pyrazol-5-ol)” (Biomedicines, 2022).

The structures appear in SMILES notation.

In data set [1] the test system is bloodstream form of T. b. brucei (strain 427). The experiment in a line: Bioluminescence viability assay against bloodstream T. b. brucei expressing luciferase. As to conditions: for T. brucei SI vs. Hepatocytes: CC50 HepG2 hepatocytes/IC50 T. brucei; for IC50: Trypanosoma brucei, 24 h, read-out: T. brucei bloodstream IC50, 24 h, bioluminescence.
Data set [2] in a line: MTT cytotoxicity assay, HepG2. The data set is classed as cell-based. The following applies: human, HepG2 cells, HepG2, 72 h, read-out: CC50 HepG2 Hepatocytes. On the procedure: (§1) Murine macrophages (cell line RAW 264.7, ATCC® TIB-71™) were grown in Dulbecco’s Modified Eagle Medium (DMEM) (Gibco, Invitrogen, Waltham, MA, USA) supplemented with 10% fetal bovine serum (FBS) (Eurobio) and 100 IU/mL penicillin + 100 µg/mL streptomycin (Gibco), at 37 °C, in an atmosphere containing 5% CO2. Human hepatocyte cell line HepG2 (ATCC® HB-8065™) was grown in MEM (Gibco, Invitrogen) supplemented with 10% FBS (Gibco, Invitrogen), 1% NEAA (Gibco, Invitrogen), and 1% L-glutamine (Gibco, Invitrogen). The medium was renewed twice a week. For both cell lines, the viability was determined using the MTT assay as described before for leishmanicidal activity assessment, with some variations. Here, 5 × 10^4 cells/well in a final volume of 100 µL were seeded into a 96-well plate, in triplicate for RAW macrophages and in duplicate for HepG2. Saponin (2.4 mg/mL) and untreated cells were used as positive control and negative control, respectively. Compounds were dissolved in DMSO to obtain different serial concentrations (1.56 to 800 µM) for RAW macrophages and 100–0.001 µM for HepG2. The final concentration of DMSO in each well was 0.5%. After exposure to compounds for 48 h and 72 h for RAW and HepG2 cells, respectively, 10 µL/well of MTT (5 mg/mL in PBS) was added, incubated at 37 °C for 2 h in darkness, and cells were pelleted via centrifugation at 4400 rpm for 10 min. The medium was removed, and 100 µL/well of DMSO was added to dissolve formazan. The absorbance at 570 and 630 nm was recorded following the same procedure as with parasites.
(In general: Tetrazolium dyes change colour on reduction, which living cells bring about.)

In another data set the test system is bloodstream T. b. brucei. Description: Microscopic observation of cell motility. The data set is classed as cell-based, Trypanosoma brucei brucei. As to conditions: 0.9 µM, 24 h, vs vehicle-treated parasites.
Data set [3] can be described thus: MTT cytotoxicity assay, murine macrophages. The data set is classed as cell-based. The following applies: mouse, RAW 264.7 macrophage cells, RAW 264.7, 48 h. On the procedure:
as §1

Data set [4] deals with L. mexicana promastigotes. Description: MTT viability assay against L. mexicana promastigotes. The data set is classed as cell-based, Leishmania mexicana. The following applies: Leishmania mexicana, 48 h, read-out: L. mexicana Promastigote IC50, promastigotes, 48 h, MTT. The method, then: The leishmanicidal activity against promastigotes from L. mexicana was evaluated by measuring parasites’ mitochondrial activity using the MTT (Thiazolyl Blue Tetrazolium Bromide) colorimetric assay as described previously. […] The medium was renewed every third day and subcultures were prepared when parasite density reached 1 × 10^7 parasites/mL. A Neubauer chamber was used to determine parasite density.

For data set [5], the system named is Human hepatocyte cell line HepG2. The following applies: read-out: CC50 HepG2 Hepatocytes, ref [47]; cited from earlier work.

As to `Cc1nn(-c2ccccc2)c(O)c1C(c1ccc(O)cc1O)c1c(C)nn(-c2ccccc2)c1O` [Compound 2y, 4,4′-[(2,4-dihydroxyphenyl)methylene]bis(3-methyl-1-phenyl-1H-pyrazol-5-ol)], in data set [1], the “T. brucei SI vs. Hepatocytes” value is >111 and the IC50 (in general, the midpoint of a concentration-inhibition curve) amounted to 0.9 ± 0.2 µM. In addition, in data set [1] (CC50 RAW macrophages/IC50 T. brucei), the “T. brucei bloodstream SI vs. Macrophages” value was found to be 189. The CC50 (in general, the concentration that lowers cell viability or growth by half) at 72 h in data set [2] was > 100 µM. Besides, the “cell motility by microscopic observation” value in the data set with bloodstream T. b. brucei is on record as “did not reveal an impairment of cell motility”. The same molecule had a CC50 at 48 h in data set [3] of 170 ± 1 µM. Further, the IC50 in data set [4] was > 50 µM.

Regarding `CC1CS(=O)(=O)CCN1/N=C/c1ccc([N+](=O)[O-])o1` (stereo not drawn) [Nifurtimox, reference compound], in data set [1], the “T. brucei SI vs. Hepatocytes” value is listed as 13 and the IC50 stood at 3.5 µM. Also, the “SI against T. brucei, range over both mammalian cell lines” value in data set [1] (murine macrophages and HepG2 hepatocytes) is 13–28.5. The CC50 at 48 h in data set [3] was > 100 µM. The 50% cytotoxic concentration (CC50) in data set [5] was 45 ± 1 µM.
